Results published in patent US20250360111A1, “COMPOSITIONS OF AGPAT4 INHIBITORS AND METHODS OF USING THEREOF TO TREAT CANCER” (The University of Hong Kong, priority 2024, published 2025).
Like-named read-outs stand apart in the source and are kept apart here.

Tests used:
HCC cells (Huh7) = experiment: Rescue and PA addition experiments: migration, invasion, limiting dilution spheroid formation, western blot; type: cell-based, human; conditions: exogenous PA added to HCC cells
Protocol: Cells at limited dilutions were cultured in 100 μL serum-free DM E M/F12 medium (Invitrogen) supplemented with 20 ng/mL human recombinant epidermal growth factor (Sigma-Aldrich), 10 ng/mL human recombinant basic fibroblast growth factor (Sigma-Aldrich), […] (Sigma-Aldrich), B27 (1:50; Invitrogen), 500 U/mL penicillin, […] (Invitrogen), and 0.25% methylcellulose (Sigma-Aldrich). Cells were cultured in suspension in polyHEMA-coated 96-well plates. The cells were replenished with 30 μL of the supplemented medium every second day. The wells were monitored for sphere formation for 7-10 days. The tumor-initiating cell frequency was calculated using extreme limiting dilution analysis.
Cells were lysed in RIPA buffer (Cell Signalling Technology) containing a complete protease inhibitor cocktail (Roche) and PMSF (Sigma-Aldrich). Protein lysates were quantified and resolved on an SDS-PAGE gel, transferred onto a PV DF membrane (Pall), immunoblotted with a primary antibody, and incubated with a secondary antibody. The antibody signal was detected using the A mersham ECL Select Western Blotting Detection Reagent (GE Healthcare). […]

AGPAT4 = target: T1, AGPAT4 (Homo sapiens, UniProt Q9NRZ5, C228A); experiment: Competitive gel-based ABPP in live cells with CL26-alkyne probe; type: cell-based; conditions: Huh7 cells, AGPAT4 C228A mutation
T1 construct: The open reading frame (ORF) encoding the mRNA of AGPAT4 was cloned into the pDONR-221 donor vector; expressed in transfected cells; host or cells: Huh7
T1 sequence (Q9NRZ5 1-378 C228A): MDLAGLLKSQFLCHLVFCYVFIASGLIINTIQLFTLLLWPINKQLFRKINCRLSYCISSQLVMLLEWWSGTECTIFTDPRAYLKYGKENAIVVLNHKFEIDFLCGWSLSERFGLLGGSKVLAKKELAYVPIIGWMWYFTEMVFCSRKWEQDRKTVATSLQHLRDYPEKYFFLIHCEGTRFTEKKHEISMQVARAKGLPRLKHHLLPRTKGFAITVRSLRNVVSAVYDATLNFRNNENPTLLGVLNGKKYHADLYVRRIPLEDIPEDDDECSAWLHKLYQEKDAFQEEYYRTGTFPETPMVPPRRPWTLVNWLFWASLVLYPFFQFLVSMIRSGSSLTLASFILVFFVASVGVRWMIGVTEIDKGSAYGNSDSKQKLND
Protocol: An in-gel fluorescence assay was performed to investigate the protein targets of CL26. Huh7 cells overexpressing AGPAT4 or cysteine mutants were pre-treated with CL26 at the indicated concentrations for 2 h, followed by CL26-alkyne (1 μM) treatment for another 2 h. Cells were harvested in RIPA buffer supplemented with protease and phosphatase inhibitors (Thermo Fisher Scientific #A32961). The proteins were precipitated by incubation with 6× volume of pre-chilled acetone at −20° C. overnight. Proteins were pelleted by centrifugation at 5000 g for 10 min and resuspended in PBS. The protein content was measured using the BCA assay and normalized to 2 mg/mL. Cell lysates (50 μL) were labelled with azide-fluor 545 by click reaction (final reaction mixture: azide-fluor 545 (25 μM), copper(II) sulfate (1 mM), TBTA (100 μM), and freshly prepared TCEP (1 mM)) at room temperature with constant agitation. After incubation for 1 h, the reaction was quenched with the sampling buffer and boiled at 90° C. for 5 min. Samples were subjected to SDS-PAGE, in-gel fluorescence was captured using ChemiDoc MP (Bio-Rad), and Coomassie Blue staining was performed. Similarly, immunoblotting was used to investigate the protein targets of CL26. Huh7 cells stably transfected with FLAG-AGPAT4 were pre-treated with either the solvent control or CL26 at the indicated concentrations for 2 h, followed by CL26-alkyne (10 μM) treatment for another 2 h. Cells were harvested, and lysates were prepared as described above unless specified. Anti-FLAG M 2 affinity beads were added in FLAG-tag pull-down experiments. After 4 h of incubation at 4° C., the beads were washed with TBS-T and resuspended in TBS-T. Sampling buffer was added and the samples were boiled for protein elution. The samples were subjected to SDS-PAG E and imaged for fluorescence signals before western blot analysis. In the probe pull-down experiment, 1 mL of lysate was labelled with desthiobiotin (DTB)-azide by a click reaction (final reaction mixture: copper(II) sulfate (1 mM), TBTA (100 μM), DTB-PEG-azide (100 μM), and freshly prepared TCEP (1 mM)). […]

[1] = system: AGPAT LPAAT family members (AGPAT1, 2, 3, 4 and 5); experiment: Isoform specificity: streptavidin pulldown and immunoblotting of CL26-alkyne-bound proteins; type: cell-based, human; conditions: Huh7 cells, DTB-PEG-azide, streptavidin pulldown
Protocol: An in-gel fluorescence assay was performed to investigate the protein targets of CL26. Huh7 cells overexpressing AGPAT4 or cysteine mutants were pre-treated with CL26 at the indicated concentrations for 2 h, followed by CL26-alkyne (1 μM) treatment for another 2 h. Cells were harvested in RIPA buffer supplemented with protease and phosphatase inhibitors (Thermo Fisher Scientific #A32961). The proteins were precipitated by incubation with 6× volume of pre-chilled acetone at −20° C. overnight. Proteins were pelleted by centrifugation at 5000 g for 10 min and resuspended in PBS. The protein content was measured using the BCA assay and normalized to 2 mg/mL. Cell lysates (50 μL) were labelled with azide-fluor 545 by click reaction (final reaction mixture: azide-fluor 545 (25 μM), copper(II) sulfate (1 mM), TBTA (100 μM), and freshly prepared TCEP (1 mM)) at room temperature with constant agitation. After incubation for 1 h, the reaction was quenched with the sampling buffer and boiled at 90° C. for 5 min. Samples were subjected to SDS-PAGE, in-gel fluorescence was captured using ChemiDoc MP (Bio-Rad), and Coomassie Blue staining was performed. Similarly, immunoblotting was used to investigate the protein targets of CL26. […] The samples were subjected to SDS-PAG E and imaged for fluorescence signals before western blot analysis. […]

advanced HCC = conditions: advanced unresectable HCC, cited from earlier work
NRAS+AKT-driven HCC = experiment: NRAS+AKT HTVI HCC mouse model, AAV8-shAgpat4 and sorafenib; type: in vivo, C57BL/6 mice; conditions: sorafenib alone, control (NTC) group
Protocol: Six- to eight-week-old male wildtype C57BL/6 mice (Jackson Laboratory) were used in this study. HTVI procedure was carried out as previously described (41, 42). Briefly, 20 μg of plasmids encoding human AKT1 (myristylated AKT1 or myr-AKT1) and human neuroblastoma Ras viral oncogene homolog (N-RasV12) along with sleeping beauty (SB) transposase at a ratio of 25:1 was diluted in 2 ml of saline (0.9% NaCl), filtered through a 0.22 μm filter and injected into the lateral tail vein of C57BL/6 mice in 5-7 s.
Four weeks after hydrodynamic tail vein injection of proto-oncogenes and SB transposase, the mice were separated into two groups and administered 1×10^11 transducing units of AAV8 virus encoding either shNTC or shAgpat4 in 100 μL PBS via tail vein injection. At 5.5 weeks, mice were administered another dose of the shNTC or shAgpat4 AAV8 virus. Mouse shNTC and mouse shAgpat4 target sequences were cloned into the LV3 vector: 5′-[…] TTTG-3′ (SEQ ID NO:1) and 5′-[…] […]-3′ (SEQ ID NO:2), respectively.
Sorafenib (30 mg/kg/day, delivered orally daily) administration began at 2-3 weeks post HTVI injection, at which point tumors started to develop. Sorafenib treatment lasted for 2.5 weeks, when tumors became non-responsive to the treatment (21). […] Tumor-bearing mice were euthanized at the humane endpoint.

HCC [2] = conditions: cited from earlier work
HCC [3] = conditions: Asian study; cited from earlier work
HCC [4] = conditions: cited from earlier work; remark: listed apart in the source
MHCC97L cells = experiment: Orthotopic metastasis model, MHCC97L cells with AGPAT4 shRNA; type: in vivo, BALB/c nude mice; conditions: MHCC97L cells injected intrahepatically, n=7 per group
Protocol: Metastasis was assessed by orthotopic injection into the liver to observe extrahepatic metastasis to the lungs. […] Six to eight weeks after implantation, mice were administered 100 mg/kg D-luciferin (Gold Biotechnology) via peritoneal injection 5 min before bioluminescence imaging (IV IS 100 Imaging System, Xenogen). The livers and lungs were harvested for ex vivo imaging and histological analyses. The metastatic nodules in the lungs were counted.

## 18:1 phosphatidic acid [PA]
HCC cells (Huh7)
  self-renewal, migration and invasion capacities: markedly enhanced the self-renewal, migration, and invasion capacities of HCC cells

## C#CCCCN(Cc1ccc(-c2nc3ccccc3s2)o1)C(=O)CCl [CL26-alkyne]
AGPAT4
  CL26-alkyne binding to AGPAT4 cysteine mutant (fluorescence signal): complete abolishment of the fluorescence signal
[1]
  specificity for AGPAT4 over other AGPAT LPAAT family members: AGAPT4 was the only protein bound

## CO[C@H]1C[C@@H]2CC[C@@H](C)[C@@](O)(O2)C(=O)C(=O)N2CCCC[C@H]2C(=O)O[C@H]([C@H](C)C[C@@H]2CC[C@@H](OCCO)[C@H](OC)C2)CC(=O)[C@H](C)/C=C(\C)[C@@H](O)[C@@H](OC)C(=O)[C@H](C)C[C@H](C)/C=C/C=C/C=C/1C [everolimus]
Advanced HCC; 28 patients
  median progression free survival: 3.8 months
Advanced HCC
  overall survival: 8.4 months

## CNC(=O)c1cc(Oc2ccc(NC(=O)Nc3ccc(Cl)c(C(F)(F)F)c3)cc2)ccn1 [sorafenib]
NRAS+AKT-driven HCC
  Agpat4 and p-mTOR expression in tumors: increase in Agpat4 and p-mTOR expression
HCC [2]; SHARP trial
  median overall survival: 10.7 months
HCC [2]; phase III trials
  tolerability: generally well tolerated
HCC [3]
  median overall survival: 6.5 months
HCC [4]; HCC
  time to radiological progression under treatment: 4-5 months
HCC [4]; first-line treatment of HCC
  expansion of patient median survival: approximately 3 months

## sh82: shRNA clone targeting human AGPAT4, clone ID NM_020133.3 (guide CCGGAUGAUUGGUGUGACGGAAAUUCUCGAGAAUUUCCGUCACACCAAUCAUUUUUUG)
MHCC97L cells
  tumors developing extrahepatic metastases in the lung: 0
  tumors formed in the liver: 5 of 7

## sh83: second independent shRNA clone targeting human AGPAT4, printed sh83 in b403 (guide CCGGGUGAUCAUAGAAAGGGUAUUUCUCGAGAAAUACCCUUUCUAUGAUCACUUUUUG)
MHCC97L cells
  tumors developing extrahepatic metastases in the lung: 0
  tumors formed in the liver: 7 of 7
